Assay results from patent US12435060B2, “Acylamino bridged heterocyclic compound, and composition and application thereof” (BEIJING SCITECH-MQ PHARMACEUTICALS LIMITED, priority 2019, dated 2025).

Each molecule was assayed on HT29 cells (assay: Inhibition of cell necrosis (CCK8 method), induced programmed necrosis of HT29 cells). Conditions: Homo sapiens, HT-29; rescue from necrosis induced by TNF-α 20 ng/mL, AT-406 1 μM, Z-VAD-FMK 20 μM; 16-20 hours; CCK-8, OD 450 nm.
Format: cell-based
Procedure: Assay Example 2. Assay Method for Compounds Inhibiting Cell Necrosis (CCK8 Method)
In this assay example 2, under the condition of inducing programmed cell necrosis, different concentrations of the test compounds were added to test the IC50 of the rescue effect of the test compounds on the programmed necrosis.
• Compounds: Dissolved in DMSO to make a 10 mM solution; • TNF-α: The initial concentration was 100 μg/mL; • Z-VAD-FMK: Dissolved in DMSO to make a 10 mM solution; • AT-406: Dissolved in DMSO to make a 10 mM solution. I. Experimental Steps • 1) Compound dilution: All test compounds were dissolved in DMSO to prepare a 10 mM stock solution, and the first concentration gradient dilution of the test compounds was completed in DMSO. The gradient dilution factor was 4 times and 9 concentration gradients were made; A 40-fold overall dilution of all compounds was completed in the cell culture medium, and the resulting compound was 10× compound, which will be added to the wells of the 96-well plate containing cells, so that the final cell culture medium was 1× the designed final concentration. The general drug design is 9 concentration gradients, of which the highest final concentration is 25000 nM, the lowest concentration after 4-fold dilution of 9 concentrations is 0.38 nM, and the final concentration of DMSO in all wells is 0.25%. The compound dilution process is shown in FIG. 3. • 2) HT 29 cells in good growth condition were selected, trypsinized, the cells was collected by centrifugation, resuspended in McCOY's 5A complete medium (containing 10% FBS) and counted, and the number of cells and survival rate were recorded. • 3) Cells were inoculated to the 60 wells in the middle of the 96-well culture plate at a density of 12000 cells/80 μL/well, surrounding wells were filled with sterile water, and incubated overnight. • 4) 10 μL of the 10× compound diluted with the medium was added to the assay wells, 10 μL of McCOY's 5A complete medium containing 2.5% DMSO was added to the inducer-free wells and the control wells, mixed and shaked, and incubated for 30 minutes. • 5) Then 10 μL of inducer mixture (TNF-α, AT-406, Z-VAD-FMK with the final concentration of 20 ng/mL, 1 μM, 20 μM) was added into the assay wells and control wells. 10 μL McCOY's 5A complete medium was added to wells without inducer. Cells were cultured in an incubator with 5% CO2, at 37° C. • 6) After culturing for 16-20 hours, 10 μL of CCK-8 reagent was added to each well, and incubated for about 2 hours; • 7) The OD value was read at 450 nm on the multi-function plate reader. • 8) Data processing: Inhibition rate of necrosis (%)=100*(X−B)/(A−B) • A: The OD values of the wells without inducer (containing cells, CCK-8, without compound and inducer); • […]: OD values of assay wells (containing cells, CCK-8, compound, inducer); • B: OD values of control wells (containing cells, CCK-8, inducer, without compound). Then the value were imported into Graphpad Prism5 software for curve fitting and the IC50 values were calculated.

SMILES | IC50 [nM]
Cc1ccc(C(=O)CC2CCOCC2)cc1-c1ccnc(NC(=O)c2nnc(Cc3ccccc3)[nH]2)c1 [Example 485, 5-benzyl-N-(4-(2-methyl-5-(2-(tetrahydro-2H-pyran-4-yl)acetyl)phenyl)pyridin-2-yl)-4H-1,2,4-triazole-3-carboxamide] | 100 to 1000
Cc1ccc(OCCCCC(C)(C)O)cc1-c1ccnc(NC(=O)c2nnc(CC3CCCC3)[nH]2)c1 [Example 223, 5-(cyclopentylmethyl)-N-(4-(5-((5-hydroxyl-5-methylhexyl)oxy)-2-methylphenyl)pyridin-2-yl)-4H-1,2,4-triazole-3-carboxamide] | ≤ 100
O=C(Nc1cc(-c2cc(OCC3CCOCC3)ccc2Cl)ncn1)c1nnc(Cc2ccccc2)[nH]1 [Example 466, 5-benzyl-N-(6-(2-chloro-5-((tetrahydro-2H-pyran-4-yl)methoxy)phenyl)pyrimidin-4-yl)-4H-1,2,4-triazole-3-carboxamide] | ≤ 100
CCOc1ccc(C)nc1-c1ccnc(NC(=O)c2nnc(Cc3ccccc3)[nH]2)c1 [Example 62, 5-benzyl-N-(3-ethoxy-6-methyl-[2,4′-bipyridin]-2′-yl)-4H-1,2,4-triazole-3-carboxamide] | > 10000
O=C(Nc1cc(-c2cc(OCCCCCO)ccc2C(F)(F)F)ccn1)c1nnc(Cc2ccccc2F)[nH]1 [Example 276, 5-(2-fluorobenzyl)-N-(4-(5-((5-hydroxypentyl)oxy)-2-(trifluoromethyl)phenyl)pyridin-2-yl)-4H-1,2,4-triazole-3-carboxamide] | ≤ 100
O=C(Nc1cc(-c2cc(OCC3CCOCC3)ccc2C(F)(F)F)ccn1)c1nnc(CC2CCCCC2)[nH]1 [Example 304, 5-(cyclohexylmethyl)-N-(4-(5-((tetrahydro-2H-pyran-4-yl)methoxy)-2-(trifluoromethyl)phenyl)pyridin-2-yl)-4H-1,2,4-triazole-3-carboxamide] | ≤ 100
O=C(Nc1cc(-c2cc(OCC3CCOCC3)ccc2F)ccn1)c1nnc(Cc2ccccc2F)[nH]1 [Example 315, 5-(2-fluorobenzyl)-N-(4-(2-fluoro-5-((tetrahydro-2H-pyran-4-yl)methoxy)phenyl)pyridin-2-yl)-4H-1,2,4-triazole-3-carboxamide] | 100 to 1000
COc1cc(Cc2nnc(C(=O)Nc3cc(-c4cc(OCCCC(C)(C)O)ccc4C)ccn3)[nH]2)ccc1F [Example 209, 5-(4-fluoro-3-methoxybenzyl)-N-(4-(5-((4-hydroxy-4-methylpentyl)oxy)-2-methylphenyl)pyridin-2-yl)-4H-1,2,4-triazole-3-carboxamide] | 100 to 1000
O=C(Nc1cc(-c2cc(OCCC3CCOCC3)ccc2C(F)(F)F)ccn1)c1nnc(CC2CCCCC2)[nH]1 [Example 310, 5-(cyclohexylmethyl)-N-(4-(5-(2-(tetrahydro-2H-pyran-4-yl)ethoxy)-2-(trifluoromethyl)phenyl)pyridin-2-yl)-4H-1,2,4-triazole-3-carboxamide] | ≤ 100
CCC(O)(CC)CCCOc1ccc(C)c(-c2cc(NC(=O)c3nnc(Cc4ccccc4F)[nH]3)ncc2Cl)c1 [Example 244, N-(5-chloro-4-(5-((4-ethyl-4-hydroxyhexyl)oxy)-2-methylphenyl)pyridin-2-yl)-5-(2-fluorobenzyl)-4H-1,2,4-triazole-3-carboxamide] | ≤ 100
COc1ccc(Cc2nnc(C(=O)Nc3cc(-c4cc(OCCCC(C)(C)O)ccc4C)ccn3)[nH]2)cc1 [Example 190, 5-(4-methoxybenzyl)-N-(4-(5-((4-hydroxy-4-methylpentyl)oxy)-2-methylphenyl)pyridin-2-yl)-4H-1,2,4-triazole-3-carboxamide] | 100 to 1000
Cc1c(F)cc(OCCCC(C)(C)O)cc1-c1ccnc(NC(=O)c2nnc(Cc3ccccc3)[nH]2)c1 [Example 235, 5-benzyl-N-(4-(3-fluoro-5-((4-hydroxy-4-methylpentyl)oxy)-2-methylphenyl)pyridin-2-yl)-4H-1,2,4-triazole-3-carboxamide] | ≤ 100
Cc1ccc(OCCCC(C)(C)O)cc1-c1ccnc(NC(=O)c2nnc(Cc3cccc(F)c3)[nH]2)c1 [Example 184, 5-(3-fluorobenzyl)-N-(4-(5-((4-hydroxy-4-methylpentyl)oxy)-2-methylphenyl)pyridin-2-yl)-4H-1,2,4-triazole-3-carboxamide] | ≤ 100
CC(C)(O)COc1ccc(Cl)c(-c2ccnc(NC(=O)c3nnc(CC4CCCCC4)[nH]3)c2)c1 [Example 366, N-(4-(2-chloro-5-(2-hydroxyl-2-methylpropoxy)phenyl)pyridin-2-yl)-5-(cyclohexylmethyl)-4H-1,2,4-triazole-3-carboxamide] | ≤ 100
CCC(O)(CC)CCCOc1ccc(C(F)(F)F)c(-c2ccnc(NC(=O)c3nnc(Cc4ccccc4F)[nH]3)c2)c1 [Example 261, 5-(2-fluorobenzyl)-N-(4-(5-((4-ethyl-4-hydroxyhexyl)oxy)-2-(trifluoromethyl)phenyl)pyridin-2-yl)-4H-1,2,4-triazole-3-carboxamide] | ≤ 100
CCOc1ccc(Cl)c(-c2cncc(NC(=O)c3nnc(Cc4ccccc4)[nH]3)c2)c1 [Example 105, 5-benzyl-N-(5-(2-chloro-5-ethoxyphenyl)pyridin-3-yl)-4H-1,2,4-triazole-3-carboxamide] | > 10000
COc1ccc(C)c(-c2ccnc(NC(=O)c3nnc(Cc4ccccc4)[nH]3)c2)c1 [Example 101, 5-benzyl-N-(4-(5-methoxy-2-methylphenyl)pyridin-2-yl)-4H-1,2,4-triazole-3-carboxamide] | 100 to 1000
O=C(Nc1cc(-c2cc(OCC3CCOCC3)ccc2F)c(F)cn1)c1nnc(Cc2ccccc2F)[nH]1 [Example 327, N-(5-fluoro-4-(2-fluoro-5-((tetrahydro-2H-pyran-4-yl)methoxy)phenyl)pyridin-2-yl)-5-(2-fluorobenzyl)-4H-1,2,4-triazole-3-carboxamide] | ≤ 100
CCC(O)(CC)CCCOc1ccc(C)c(-c2ccnc(NC(=O)c3nnc(Cc4ccccc4)[nH]3)c2)c1 [Example 165] | ≤ 100
COCCCOc1ccc(Cl)c(-c2ccnc(NC(=O)c3nnc(Cc4ccccc4F)[nH]3)c2)c1 [Example 396, 5-(2-fluorobenzyl)-N-(4-(2-chloro-5-(3-methoxypropoxy)phenyl)pyridin-2-yl)-4H-1,2,4-triazole-3-carboxamide] | ≤ 100
CCC(O)(CC)CCCOc1ccc(Cl)c(-c2cc(NC(=O)c3nnc(Cc4ccccc4F)[nH]3)ncc2Cl)c1 [Example 417, N-(5-chloro-4-(2-chloro-5-((4-ethyl-4-hydroxyhexyl)oxy)phenyl)pyridin-2-yl)-5-(2-fluorobenzyl)-4H-1,2,4-triazole-3-carboxamide] | 100 to 1000
CSCCCCOc1ccc(C)c(-c2ccnc(NC(=O)c3nnc(Cc4ccccc4)[nH]3)c2)c1 [Example 150, 5-benzyl-N-(4-(2-methyl-5-(4-(methylthio)butoxy)phenyl)pyridin-2-yl)-4H-1,2,4-triazole-3-carboxamide] | ≤ 100
Cc1ccc(OCCF)cc1-c1ccnc(NC(=O)c2nnc(Cc3ccccc3)[nH]2)c1 [Example 68, 5-benzyl-N-(4-(5-(2-fluoroethoxy)-2-methylphenyl)pyridin-2-yl)-4H-1,2,4-triazole-3-carboxamide] | 100 to 1000
COCCCOc1ccc(Cl)c(-c2ccnc(NC(=O)c3nnc(CC4CCCCC4)[nH]3)c2)c1 [Example 398, N-(4-(2-chloro-5-(3-methoxypropoxy)phenyl)pyridin-2-yl)-5-(cyclohexylmethyl)-4H-1,2,4-triazole-3-carboxamide] | ≤ 100
CC(C)(O)CCCOc1ccc(Cl)c(-c2ccnc(NC(=O)c3nnc(Cc4ccc(F)c(Cl)c4F)[nH]3)c2)c1 [Example 501, 5-(3-chloro-2,4-difluorobenzyl)-N-(4-(2-chloro-5-((4-hydroxy-4-methylpentyl)oxy)phenyl)pyridin-2-yl)-4H-1,2,4-triazole-3-carboxamide] | 100 to 1000
Cc1ccc(OCCC2CCOCC2)cc1-c1ccnc(NC(=O)c2nnc(Cc3ccccc3)[nH]2)c1 [Example 87, 5-benzyl-N-(4-(2-methyl-5-(2-(tetrahydro-2H-pyran-4-yl)ethoxy)phenyl)pyridin-2-yl)-4H-1,2,4-triazole-3-carboxamide] | ≤ 100
